From ChEMBL document CHEMBL1128073, “Inhibition of glycosidases by substituted amidines” (Bioorg Med Chem Lett, 1995)

Tests used:
[1] = Inhibition against Alpha-maninosidase in jack bean; design: species or system Canavalia ensiformis
[2] = pKa value was determined for the compound by 1H NMR titration; format: physicochemical
Beta-galactosidase = biological target: T1, Beta-galactosidase (Bos taurus, UniProt Q58D55); test: Inhibition against beta-galactosidase in bovine liver; NI is No Inhibition at 1 mM
T1 sequence (Q58D55 whole entry): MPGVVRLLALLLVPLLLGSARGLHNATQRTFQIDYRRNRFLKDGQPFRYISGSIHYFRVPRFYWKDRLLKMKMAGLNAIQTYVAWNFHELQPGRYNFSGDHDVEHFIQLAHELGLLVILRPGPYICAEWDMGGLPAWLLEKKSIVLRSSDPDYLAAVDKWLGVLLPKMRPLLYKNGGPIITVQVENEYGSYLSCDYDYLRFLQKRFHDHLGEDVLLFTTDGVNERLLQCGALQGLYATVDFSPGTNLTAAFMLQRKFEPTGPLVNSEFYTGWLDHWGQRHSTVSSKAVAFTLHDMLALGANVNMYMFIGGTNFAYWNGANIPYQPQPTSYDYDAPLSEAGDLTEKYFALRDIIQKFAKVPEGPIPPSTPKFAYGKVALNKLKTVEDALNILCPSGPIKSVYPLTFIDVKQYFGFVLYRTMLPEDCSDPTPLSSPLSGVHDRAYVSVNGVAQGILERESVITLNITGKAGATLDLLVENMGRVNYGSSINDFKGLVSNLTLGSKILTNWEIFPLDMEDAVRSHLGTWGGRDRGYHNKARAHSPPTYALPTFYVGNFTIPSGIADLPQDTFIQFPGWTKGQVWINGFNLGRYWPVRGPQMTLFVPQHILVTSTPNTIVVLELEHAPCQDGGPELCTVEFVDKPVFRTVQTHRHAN

c1ccc(CNC2=NCCCC2)cc1
Ki [1]: 14000 µM

OCC1CCCC(NCc2ccccc2)=N1 (configuration not stated)
Ki [1]: 1400 µM

OC[C@@H]1N=C(NCc2ccccc2)[C@@H](O)[C@@H](O)[C@@H]1O
pKa [2]: 10 | Ki [1]: 0.55 µM | Ki (Beta-galactosidase): No inhibition

CO[C@H]1O[C@@H](CNC2=N[C@@H](CO)[C@@H](O)[C@H](O)[C@@H]2O)[C@@H](O)[C@H](O)[C@H]1O
Ki [1]: 2.6 µM | Ki (Beta-galactosidase): No inhibition
